Test: Solubility of added 5% CHG in commercial detergent compositions
Assay type: physicochemical

N=C(NCCCCCCNC(=N)NC(=N)Nc1ccc(Cl)cc1)NC(=N)Nc1ccc(Cl)cc1.O=C(O)[C@H](O)[C@@H](O)[C@H](O)[C@H](O)CO.O=C(O)[C@H](O)[C@@H](O)[C@H](O)[C@H](O)CO [CHG, chlorhexidine gluconate]
insoluble: Solubility of CHG in detergent composition C2 (5% CHG added to C2) | Solubility of CHG in detergent composition C3 (5% CHG added to C3) | Solubility of CHG in detergent composition C6 (5% CHG added to C6)

— US20210395653A1, “COMPOSITIONS FOR TREATMENT AND METHODS FOR MAKING AND USING THE SAME” (ASP Global Manufacturing GmbH, priority 2018, published 2021)
